Laboratory results as given in patent US20210145850A1, “COMPOSITION, FOR OSTEOARTHRITIS TREATMENT, COMPRISING HYDROPHILIZED SULFASALAZINE AND HYALURONIC ACID AND METHOD FOR PREPARING SAME” (BMI KOREA CO., LTD, priority 2015, published 2021).

How the values were obtained:
[1] = system: osteoarthritis animal model induced by 1 mg MIA (Monosodium IodoAcetate) in synovium; assay: In vivo anti-osteoarthritis efficacy test, X-ray of joint region; set-up: species or system rat (Sprague Dawley)
Experimental: FIG. 4 is X-ray radiographs of osteoarthritis animal model (rat) induced by treating 1 mg MIA in synovium at 8 weeks after administering the osteoarthritis composition comprising hydrophilized sulfasalazine and hyaluronic acid according to the present invention of 0 to 8 mM. After inducing an osteoarthritis animal model by treating 1 mg MIA (Monosodium IodoAcetate) to synovium of 8 week-old rat (Sprague Dawley), after 1 week, mixtures prepared in Example 1 was administered by intraarticular injection.

[2] = taken orally, maximum dose of 4 g/day; cited from earlier work
[3] = as component of synovial fluid; cited from earlier work

| Molecule | anti-osteoarthritis effect ([1]; less than 2 mM (0.08 w/v %)) | osteoarthritis treatment effect ([1]; low concentration, for example 1 mM) | blood concentration [2] [µg/mL] | half life [3] |
| --- | --- | --- | --- | --- |
| O=C(O)c1cc(/N=N/c2ccc(S(=O)(=O)Nc3ccccn3)cc2)ccc1O [sulfasalazine] | anti-osteoarthritis effect could not be shown | could not show an effective level of osteoarthritis treatment effect | 12 |  |
| hyaluronic acid |  |  |  | more than 13 hours |
